Values of other authors, collected in patent US8454993B2, “Controlled release pharmaceutical compositions of pregabalin” (Lupin Limited, priority 2007, dated 2013).

Settings: in water and both basic and acidic aqueous solutions

**Q.** With `CC(C)C[C@H](CN)CC(=O)O` [Pregabalin, (S)-(+)-3-(aminomethyl)-5-methylhexanoic acid] as the compound, how does the solubility read?
**A.** The solubility was “freely soluble”.
